The nature of this assay: Binding of reporter dye prodan to the lumen of alpha helical barrels (fluorescence titration). Particulars: dissociation constant of prodan (1 μM) with alpha helical barrel 0.5-500 μM, up to 2 hours, fluorescent signal. The procedure: The dyes 1,6-diphenyl-1,3,5-hexatriene (DPH) and 6-propionyl-2-dimethylaminonaphthalene (prodan) were assayed against a number of alpha helical barrels to determine their dissociation constants, KD. DPH or prodan (1 μM) was incubated with varying concentrations of alpha helical barrel (0.5-500 μM) for up to 2 hours, and the fluorescent signal measured at the corresponding emission wavelength.

Consider “GELKAIAQELKAIAKELKAIAWELKAIAQG [CC-Hex, forms alpha helical barrel with 6 helices]”, for which the dissociation constant Kd (commonly a measure of binding affinity in units of concentration) is more than 500 µM and the “Prodan KD” value was “did not bind”.
For “GKIEQILQKIEKILQKIEWILQKIEQILQG [CC-Pent, forms alpha helical barrel with 5 helices]” the same measures were more than 500 µM and “did not bind”.
